This assay deals with streptavidin (Streptomyces avidinii, UniProt P22629). Briefly: DNA nanoswitch gel electrophoresis assay of biotin-streptavidin dissociation kinetics. Particulars: for dissociation time: 150 mM salt, multiplied by two to represent a single biotin-streptavidin interaction. It is filed as binding. From the text:
Linkers were designed according to protocols for long (2580 bp) and short (600 bp) loops as described herein. […] All other oligos were the same as those used previously. Briefly, looped constructs were made by mixing a long single-stranded DNA (M13mp18, in this case) with over 121 oligos that are complementary along its length. […] The constructs come together by self-assembly with a temperature ramp heating and cooling them.
Recognizing that the nanoswitch conformation informs the receptor-ligand binding state (bound or unbound), and that the conformation can be observed on a gel, an assay to measure bulk interaction kinetics was developed. The assay, conceptually shown in FIG. 7, proceeds as follows: 1) form a looped nucleic acid (DNA) construct that relies on a receptor and a ligand being bound to each other, 2) quench the interaction between the receptor and the ligand, for example, with excess receptor or ligand to prevent rebinding following dissociation, 3) monitor the relative amount of looped construct over time to measure kinetics.
Linear double-stranded DNA constructs 7249 base pairs (bp) in length were self-assembled by combining the single-stranded M13 bacteriophage genome with 121 complementary oligos. (See also Halvorsen K et al., 2011). Two of the oligos were labeled with single biotins and placed 2580 bp from each other, such that interaction with streptavidin induced the formation of a 2580 bp loop in the structure. […] The entire array of 16 conditions with five time points each plus controls was then run on a single 96 lane agarose gel (FIG. 8).
To determine the biotin-streptavidin dissociation kinetics, an image of the gel was analyzed using publicly available software (ImageJ). The gel analysis tool in ImageJ was used to measure the integrated intensity of the band containing looped construct, and this quantity was normalized by the integrated intensity of a reference band in the same lane from a DNA ladder, which was added to the construct prior to starting experiments. Individual time constants for each experimental condition were determined by fitting a single exponential decay to the data using an error weighted least squares fitting.

Sequence of streptavidin (P22629 25-183, species assumed): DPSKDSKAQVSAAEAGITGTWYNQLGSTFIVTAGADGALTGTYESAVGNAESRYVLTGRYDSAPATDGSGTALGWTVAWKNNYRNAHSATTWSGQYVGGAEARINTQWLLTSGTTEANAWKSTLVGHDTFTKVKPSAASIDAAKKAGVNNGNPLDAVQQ

As to `O=C(O)CCCC[C@@H]1SC[C@@H]2NC(=O)N[C@@H]21` [biotin], the dissociation time (25° C.) worked out at 148 ± 10 h and the dissociation time (37° C.) is 11.2 ± 3 h. Besides, the “time constants, range over the conditions tested” value (16 conditions: four salts, four temperatures (4° C. to 50° C., 5 mM to 500 mM)) is given as “half of an hour to two months”. Besides, the “time constants, range (FIG. 8 legend)” value (16 experimental conditions, FIG. 8 table) is recorded as “less than 1 hour to over 1000 hours”. Also, the “variation of off-rate with temperature” value (at a given salt concentration, from 4° C. to 50° C.) was “over 100 fold”. Besides, under “at a given temperature, from 5 mM to 500 mM”, the “change of off-rate with salt” value was “less than 2 fold”. Where the note is “high temperature”, the “fastest off-rate measured (as a time)” value was determined as 40 min.

The record behind these values is US9914958B2, “Nucleic acid-based linkers for detecting and measuring interactions” (President and Fellows of Harvard College, priority 2011, dated 2018).
